Data from patent US20080085273A1, “VEHICLE FOR THE TRANSPORT OF A CHOSEN MOLECULE TO A CELL” (Synvolux IP B.V., priority 2004, published 2008).

Test system: Human Embryonic Kidney cells, strain 293A
Test: Transfection of Human Embryonic Kidney cells with CMV-GFP plasmid complexed with SAINT-molecules, GFP expression by FACS
Format: cell-based
Conditions: 293A cells, 12 well plates; 500 ng CMV-GFP plasmid complexed with 3.75 nm SAINT molecules or linker per well; FACS 48 hours after transfection
From the text: FIG. 1 is the result of Human Embryonic Kidney cells, strain 293A, cultured in 12 well plates and are transfected with 4 combinations of SAINT-molecules (i.e. SAINT-18, SAINT-18 coupled to RGD, a mixture of SAINT-18 and SAINT-18 coupled to RGD, and SAINT-18 linker).
Human Embryonic Kidney cells are difficult to be transfected. When using these cells, main competing transfection methods (of other manufacturers), require several micrograms of plasmid DNA for successful transfection. Combined with SAINT-18, 1 μg (per 12 wells) normally results in a transfection rate above 90%. To be able to visualize the enhancing effect of the targeting moiety SAINT-18-RGD, in this protocol we used a low amount of plasmid DNA (500 ng per 12 wells). The structural formula of SAINT-linker-RGD is depicted in […]. In addition, an RGD-peptide is coupled to the SATA-group of the SAINT-Linker, as described in the present invention. The RGD group is a targeting moiety for the integrin receptor family and is though to increase the transfection efficacy. Human Embryonic Kidney cells, strain 293A, are cultured in 12 well plates and are transfected with 4 combinations of Saint-molecules (i.e. SAINT-18, SAINT-18 coupled to RGD, a mixture of SAINT-18 and SAINT-18 coupled to RGD, and only a linker molecule as a reference). […] 48 hours after transfection GFP expression is measured by FACS analysis. […]

SMILES: CCCCCCCC/C=C\CCCCCCCCC(CCCCNC(=O)C1CCC(CN2C(=O)CC(SCC(=O)NC(=N)NCCCC(C)C(=O)NCC(=O)NC(CC(=O)O)C(=O)O)C2=O)CC1)c1cc[n+](C)cc1.[Cl-] (stereo not shown) [S18/RGD]
- transfection ability (percentage of GFP positive cells, FIG. 1, result in words): able to transfect cells
